Measured values from patent publication US11912788B2, “Probiotic molecules for reducing pathogen virulence” (priority 2017, dated 2024).

Key:
HilA = test: qPCR of HilA down-regulation in Salmonella, reference gene 16S; type: cell-based, Salmonella enteric typhimurium DT104; details: individual synthetic biopeptides, 50 μg per assay
From the text: The cell-free supernatant was separated using Sephadex G75 resin. The samples were separated and collected into fractions: Fraction 1 (>163000 Da), Fraction 2 (163000-14500 Da), Fraction 3(14500-1300 Da), Fraction 4 (1300-110 Da), Fraction 5 (110-10 Da). The samples were collected and assayed by qPCR using Salmonella enteric typhimurium DT104 strain. The down-regulation of HilA was compared to the reference gene 16S.
The active fraction from G75 size exclusion chromatography was further separated using reverse phase chromatography. The fractions from the reverse phase: Fraction 1 (0-2 min), Fraction 2 (2-4 min), Fraction 3 (4-16 min), Fraction 4 (16-32 min), Fraction 5 (32-40 min), Fraction 6 (40-58 min). The fractions were dried and neutralized to remove acetonitrile and trifluoroacetic acid from the solvent. The dried fractions were assayed using the same qPCR assay conditions as above. The fractions were analyzed by de novo sequencing at the University of Guelph Advance Analytical center. The peptides from the active fractions of 6 batches were compared and common peptides from batches were deduced.

HylA = details: individual synthetic biopeptides, 50 μg per assay; reference gene GapA
Method: The La-5 cell-free supernatant used for these experiments was batch D4. […] Strain 1 alias UPEC99 and strain 2 alias UPEC804. The strains were cultured on LB agar. Two different media were tested LB and artificial urine medium.
The UPEC were grown for 4 hours in the presence of cell-free supernatant. The cells were harvested and the RNA was extracted. The RNA was treated with DNAse I to remove genomic DNA. The RNA was used as a template to make cDNA. The cDNA was assayed by qPCR and the gene expression was normalized to a reference gene and compared to a without cell-free media control.
The synthetic bio-peptides were analyzed at 50 μg per assay.

[1] = system: Staphylococcus aureus (strain alias LA-414M SPA t034); test: Cefoxitin MIC testing with and without cell-free supernatant; type: cell-based; details: MRSA LA 414M, 0 mg/mL dried cell-free (cefoxitin only)
From the text: (§1) Three methicillin resistant Staphylococci (MRS) strains were used in these experiments: 1) Staphylococcus pseudintermedius (strain alias C260 22-2011 dtqa), a clinical isolate from a dog skin infection; 2) Staphylococcus aureus (strain alias LA-414M SPA t034), a livestock-associated strain isolated from beef purchased from a grocery store in Charlottetown, PEI, Canada; and 3) Staphylococcus aureus (strain alias 81M SPA t008), isolated from poultry meat purchased from a grocery store in Charlottetown, PEI, Canada. All three MRS strains were provided by the Atlantic Veterinary College (AVC) at the University of Prince Edward Island. The methicillin-resistance of these strains was confirmed by AVC staff using an oxacillin disk diffusion method. The strains were originally cultured on sheep blood agar slants, and then transferred to lysogeny broth agar plates. Cefoxitin resuspended in methanol was used for antibiotic resistance testing, and growth was tested in two different media types, standard Lysogeny Broth and standard BBL™ Cation-Adjusted Mueller-Hinton Medium (Becton, Dickinson and Company). The minimum inhibitory concentrations (MICs) of the cefoxitin was determined for each strain in each respective medium in the presence and absence of the cell-free supernatant. Assays were performed according to the Clinical and Laboratory Standards Institute (CLSI) guidelines for MIC testing of Staphylococcal species [CLSI, 2015] as well as the European Committee for Antimicrobial Susceptibility Testing (EUCAST) of the European Society of Clinical Microbiology and Infectious Diseases [EUCAST, 2003].
(§2) The protocol for MIC testing was as follows. The cell-free supernatants were resuspended in the respective media and filter sterilized through a […] pore size filter. The required concentration of dried cell free supernatant was weighed and added at concentrations ranging from 0-60 mg/mL. Cefoxitin was added to obtain final concentrations ranging from 0-250 μg/mL. […] Following incubation, microplates were read at 600 nm using a microplate reader. […]

[2] = system: Staphylococcus pseudintermedius (strain alias C260 22-2011 dtqa); test: as above; type: cell-based; details: MSRP C260; Lysogeny Broth; 0 mg/mL dried cell-free (cefoxitin only)
From the text: as §1, §2

[3] = system: Staphylococcus aureus (strain alias 81M SPA t008); test: Cefoxitin MIC testing with and without cell-free supernatant or its size exclusion fractions; type: cell-based
From the text: as §1, §2

Compound | Fold down-regulation HilA (HilA) | Fold down-regulation HylA (HylA) | further results
LKPTPEGD | 11.08 Fold | 4.69 Fold | –
CVLPPK | 3.75 Fold | 3.20 Fold | –
CO[C@@]1(NC(=O)Cc2cccs2)C(=O)N2C(C(=O)O)=C(COC(N)=O)CS[C@@H]21 [Cefoxitin] | – | – | Range of Cefoxitin concentration to inhibition growth to O.D. < 0.1 (cefoxitin MIC) ([1]; Lysogeny Broth): 30 to 40 µg/mL; Range of Cefoxitin concentration to inhibition growth to O.D. < 0.1 (cefoxitin MIC) ([1]; Mueller-Hinton Broth): 50 to 60 µg/mL; Range of Cefoxitin concentration to inhibition growth to O.D. < 0.1 (cefoxitin MIC) [2]: 125 to 175 µg/mL; Range of Cefoxitin concentration to inhibition growth to O.D. < 0.1 (cefoxitin MIC) ([3]; MRSA 81M, Lysogeny Broth, 0 mg/mL dried cell-free (cefoxitin only)): 75 to 125 µg/mL; Range of Cefoxitin concentration to inhibition growth to O.D. < 0.1 (cefoxitin MIC) ([3]; MRSA 81M, Mueller-Hinton Broth, 0 mg/mL dried cell-free (cefoxitin only)): 75 to 100 µg/mL; Range of Cefoxitin concentration to inhibition growth to O.D. < 0.1 (cefoxitin MIC) ([3]; Table 4, Staphylococcus aureus 81M, Untreated (0 mg/mL), cefoxitin only): 60 to 75 µg/mL
HLLPLP | 2.93 Fold | 2.64 Fold | –
YPPGGP | 2.93 Fold | 3.56 Fold | –
MALPPK | 19.56 Fold | 9.06 Fold | –
YPVEPF | 0.68 Fold | 1.03 Fold | –
